Measurements: PubChem BioAssay (NCI)
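Following 48 hours of exposure in 96-well plates, responses at five concentrations were used to interpolate endpoints linearly. GI50: concentration for 50% inhibition of growth. TGI: total growth inhibition.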

Legend:
Experiment in all cases: DTP human tumour cell line panel, 48 h
[1] = test system: DU-145 prostate
[2] = test system: HT29 colon
[3] = test system: NCI-H460 lung
[4] = test system: NCI/ADR-RES ovarian
[5] = test system: PC-3 prostate
[6] = test system: SNB-75 CNS
[7] = test system: T-47D breast
[8] = test system: U251 CNS
[9] = test system: UACC-257 melanoma
[10] = test system: UACC-62 melanoma

| SMILES | GI50 [1] [µM] | TGI [1] [µM] | GI50 [2] [µM] | TGI [2] [µM] | GI50 [3] [µM] | GI50 [4] [µM] | GI50 [5] [µM] | TGI [5] [µM] | GI50 [6] [µM] | TGI [6] [µM] | GI50 [7] [µM] | TGI [7] [µM] | GI50 [8] [µM] | TGI [8] [µM] | GI50 [9] [µM] | TGI [9] [µM] | GI50 [10] [µM] | TGI [10] [µM] | TGI [3] [µM] | TGI [4] [µM] |
| --- | --- | --- | --- | --- | --- | --- | --- | --- | --- | --- | --- | --- | --- | --- | --- | --- | --- | --- | --- | --- |
| CC(=O)c1nc2ccccc2n1CC(=O)c1cccc(Cl)c1 | 0.647 | > 31.8 | 11.6 | > 100 | 0.36 | 0.231 | 1.12 | > 100 | 0.313 | 59.8 | 0.881 | > 100 | 0.534 | > 100 | 1.69 | > 100 | 0.416 | 7.29 | – | – |
| O=C(O)c1cc2ccccc2c2c1C(=O)c1ccccc1-2 | – | > 100 | – | > 100 | – | – | – | > 100 | – | > 100 | – | > 100 | – | > 100 | – | > 100 | – | > 100 | > 100 | > 100 |
| COC(=O)C(C)NC(=O)c1ccccc1I(OS(=O)(=O)C(F)(F)F)c1ccccc1 (configuration not stated) | 25.6 | > 71.1 | 23.1 | > 61.4 | 20.4 | 20.1 | 22 | 53.1 | > 49 | > 87.8 | 36.3 | > 100 | 18.2 | 38.5 | 42.6 | > 100 | 17.3 | 35 | 59.1 | 42.9 |
| COc1ccc(Cn2cc3c(c2-c2cc(OC)c(OC)c(OC)c2)CCc2cnoc2-3)cc1 | 0.309 | > 100 | 0.335 | 10.3 | 0.332 | 0.242 | 0.473 | > 100 | 0.147 | 0.746 | 0.82 | > 100 | 0.393 | > 100 | – | > 100 | 0.342 | > 23 | 1.88 | > 100 |
| CC(=O)/C(=C/N1CCNC1=S)C(=O)Nc1ccccc1C | – | > 100 | – | > 100 | – | – | – | > 100 | – | > 100 | – | > 100 | – | > 100 | – | > 100 | – | > 100 | > 100 | > 100 |
| CN(C)CCCn1c(-c2nonc2N)nc2cnccc21 | > 25 | > 25 | > 25 | > 25 | > 25 | > 25 | > 25 | > 25 | 8.06 | > 25 | > 25 | > 25 | > 25 | > 25 | > 25 | > 25 | > 25 | > 25 | > 25 | > 25 |
